The source of these data is patent US20180133337A1, “CALICHEAMICIN CONSTRUCTS AND METHODS OF USE” (priority 2015, published 2018).

Structures are written as SMILES. pIC50: −log10 of the molar value.

In one data set the test system is 293 T cells. Description: In vitro cell killing by calicheamicin and linker-drug constructs (CellTiter-Glo, 72 hours). The data set is classed as cell-based. As for the experimental part: (§1) 293 T cells were used along with MES SA and MES SA/Dx cells which comprise uterine sarcoma lines purchased from ATCC. The MES SA/Dx cell line was generated from MES SA cells cultured with increasing amounts of doxorubicin resulting in 100-fold resistance to doxorubicin and upregulation of MDR1.
(§2) The cells were cultured in a T75 flask to ˜50-80% confluency and harvested with trypsin into a single cell suspension. Five hundred (500) cells per well were seeded in tissue culture plates in 50 μL/well culture media and incubated at 37° C. for 18-24 hours. Compounds were diluted as 400× final desired concentrations in DMSO. Serial dilutions in DMSO were then diluted in culture media for a final DMSO concentration of 0.25% and 50 μL/well of the final dilution was added to the cells (Vf=100 μL). Upon plating and treatment, cells were returned to the incubator for an additional 72 hours. CellTiter-Glo reagent was prepared per manufacturer's instructions and added at 100 μL/well to the cultures. CellTiter-Glo allows for relative enumeration of metabolically active cells by quantifying intracellular ATP concentrations. After 5 minutes of incubation with CellTiter-Glo at ambient room temperature, 125 μL/well of the Cell Titer Glo/cell lysate solution was transferred into black assay plates, which were then read in a luminometer within 30 minutes.
On the technique in general: In ATP-based viability assays light output follows the ATP content of the culture.

For data set [1], the system named is MES SA cells (uterine sarcoma line). The data set is described as above. The format is cell-based. The following applies: for pIC50: MES SA. The method, then: as §1, §2
In data set [2] the test system is MES SA/Dx cells (doxorubicin-resistant uterine sarcoma line, MDR1 upregulated). Described as above. The format is cell-based. The method, then: as §1, §2
The target in another data set is Cathepsin B (Homo sapiens, UniProt P07858). Description: Cathepsin B cleavage assay of dipeptide linker-drug constructs. The following applies: NAC-quenched linker-drug, 2.5, 5 or 10 mol % enzyme, pH 6.0, room temperature, 15-90 min. The format is biochemical. The method, then:
Initially linker drug constructs from Examples 3 and 4 were treated with IM N-acetyl cysteine solution to quench maleimide functionality prior to the cathepsin B treatment. Excess of N-acetyl cysteine is used to activate the Cathepsin B.
More specifically quenched linker-drugs in 1:1 acetonitrile:water solution (20 ul) were diluted with 20 mM HisC1 pH 6.0 to a final acetonitrile content of 10% v/v ([…]). Cathepsin B enzyme was added to result in 2.5 mol %, 5 mol % or 10 mol % enzyme relative to the linker-drug. Reactions were vortexed gently and kept at room temperature. At the time points of 15, 30, 60 and 90 min 3 ul of the reaction mixture were placed into the total recovery vial containing 5 uL Tris pH 9, 2 uL 100 mM […] (DHAA), 15 ul water. The samples were analyzed using Analytical Method B set forth above. Conversion was calculated based on the decrease of the starting material peak area.

The mark [3] stands for this setting: SMALL MOLECULE IVK (10 nM start, 5X dilutions).
The mark [4] stands for this setting: SMALL MOLECULE IVK (10 nM start, 5X dilutions), listed as N acetyl calicheamicin (lot B).
Setting [5] is: LINKER DRUG IVK (1000 nM start, 10X dilutions).

Take `CCN(C(C)=O)[C@H]1CO[C@@H](O[C@H]2[C@H](O[C@H]3C#C/C=C\C#C[C@]4(O)CC(=O)C(NC(=O)OC)=C3/C4=C\CSSSC)O[C@H](C)[C@@H](NO[C@H]3C[C@H](O)[C@H](SC(=O)c4c(C)c(I)c(O[C@@H]5O[C@@H](C)[C@H](O)[C@@H](OC)[C@H]5O)c(OC)c4OC)[C@@H](C)O3)[C@@H]2O)C[C@@H]1OC` [N acetyl calicheamicin (lot A), N-acetyl calicheamicin γ 1]: the pIC50 was 10.39 in the data set with 293 T cells (setting [3]); 10.28 in the data set on 293 T cells (setting [4]); 10.51 in data set [1] (setting [3]); 10.16 in data set [1] (setting [4]); 7.51 in data set [2] (setting [3]); 7.77 in data set [2] (setting [4]). Besides, the “derived IC50 values, range of activity” value in data set [1] (summary of Table 5) is “picomolar range”.

`CCN(C(C)=O)[C@H]1CO[C@@H](O[C@H]2[C@H](O[C@H]3C#C/C=C\C#C[C@]4(O)CC(=O)C(NC(=O)OC)=C3/C4=C\CSSC(C)(C)CCC(=O)NCCNC(=O)OCc3ccc(NC(=O)[C@H](CCCNC(N)=O)NC(=O)[C@@H](NC(=O)CCCCCN4C(=O)C=CC4=O)C(C)C)cc3)O[C@H](C)[C@@H](NO[C@H]3C[C@H](O)[C@H](SC(=O)c4c(C)c(I)c(O[C@@H]5O[C@@H](C)[C@H](O)[C@@H](OC)[C@H]5O)c(OC)c4OC)[C@@H](C)O3)[C@H]2O)C[C@@H]1OC` [Val-Cit calicheamicin]: the “cleavage by Cathepsin B” value on Cathepsin B is given as “effectively cleaved”. Moreover, the “rate of cleavage by Cathepsin B, compared between constructs” value on Cathepsin B is given as “cleaved more rapidly than the Val-Ala dipeptidyl construct”. Moreover, the pIC50 is 7.34 with 293 T cells (setting [5]), 8.20 in data set [1] (setting [5]) and less than 6.00 in data set [2] (setting [5]).

`CCN(C(C)=O)[C@H]1CO[C@@H](O[C@H]2[C@H](O[C@H]3C#C/C=C\C#C[C@]4(O)CC(=O)C(NC(=O)OC)=C3/C4=C\CSSC(C)(C)CCC(=O)NCCNC(=O)OCc3ccc(NC(=O)[C@H](C)NC(=O)[C@@H](NC(=O)CCCCCN4C(=O)C=CC4=O)C(C)C)cc3)O[C@H](C)[C@@H](NO[C@H]3C[C@H](O)[C@H](SC(=O)c4c(C)c(I)c(O[C@@H]5O[C@@H](C)[C@H](O)[C@@H](OC)[C@H]5O)c(OC)c4OC)[C@@H](C)O3)[C@H]2O)C[C@@H]1OC` [Val-Ala calicheamicin]: at Cathepsin B, the “cleavage by Cathepsin B” value is listed as “effectively cleaved”.

By pIC50 is commonly meant the negative decadic logarithm of the IC50, by convention in mol/L. Lower therefore signals a high IC50.
